The values below come from patent publication US12173020B2, “New-type oxazolidinone compounds and preparation method therefor” (priority 2019, dated 2024).

In experiment [1] the test system is methicillin-resistant Staphylococcus aureus (MRSA). The experiment can be described thus: agar dilution method, inhibitory effect on MRSA. The note with it: for MIC50: Staphylococcus aureus, read-out: Minimum inhibitory concentration (MIC50, μg/ml) MRSA. The class given is cell-based. The text has this: (§1) In order to determine the antibacterial activity of these new oxazolidinone-based compounds, an agar dilution method was used to test the inhibitory effect on methicillin-resistant Staphylococcus aureus (MRSA) and vancomycin-resistant Enterococcus (VRE). The bacteria inhibition effect was expressed as minimum inhibitory concentration (MIC50, μg/ml) The test results are shown in the following table.

Experiment [2] relates to vancomycin-resistant Enterococcus (VRE). The experiment can be described thus: agar dilution method, inhibitory effect on VRE. The class given is cell-based. The note with it: for MIC50: Enterococcus, read-out: Minimum inhibitory concentration (MIC50, μg/ml) VRE.
Description: as §1

Take `CCCn1nnc(-c2ccc(-c3ccc(N4C[C@H](C(OP(=O)(O)O)C(F)F)OC4=O)cc3F)cn2)n1` (stereo partly drawn) [compound 139, (R)-3-(3-fluoro-4-(6-(2-propyl-2H-tetrazol-5-yl)pyridin-3-yl)phenyl)-5-(1-hydroxy-2-difluoroethyl) oxazolidin-2-one phosphate]: in experiment [1], the “Minimum inhibitory concentration (MIC50, μg/ml) MRSA” value turned out to be 0.8 µg/mL. Besides, in experiment [2], the “Minimum inhibitory concentration (MIC50, μg/ml) VRE” value was found to be 0.9 µg/mL.
In the same order, the values of `CCCn1nnc(-c2ccc(-c3ccc(N4C[C@@H](C(O)C(F)F)OC4=O)cc3F)cn2)n1.O=P(O)(O)O` (stereo partly drawn) [compound 140, (S)-3-(3-fluoro-4-(6-(2-propyl-2H-tetrazol-5-yl)pyridin-3-yl)phenyl)-5-(1-hydroxy-2-difluoroethyl) oxazolidin-2-one phosphate] are 0.4 µg/mL and 0.4 µg/mL.
On to `CCCn1nnc(-c2ccc(-c3ccc(N4C[C@H](C(O)CF)OC4=O)cc3F)cn2)n1.O=P(O)(O)O` (stereo partly drawn) [compound 141, (R)-3-(3-fluoro-4-(6-(2-propyl-2H-tetrazol-5-yl)pyridin-3-yl)phenyl)-5-(1-hydroxy-2-fluoroethyl) oxazolidin-2-one phosphate], for which the MIC50 in experiment [1] was determined as 0.3 µg/mL; in experiment [2], 0.2 µg/mL.
The corresponding values for `CCCn1nnc(-c2ccc(-c3ccc(N4C[C@@H](C(O)CF)OC4=O)cc3F)cn2)n1.O=P(O)(O)O` (stereo partly drawn) [compound 142, (S)-3-(3-fluoro-4-(6-(2-propyl-2H-tetrazol-5-yl)pyridin-3-yl)phenyl)-5-(1-hydroxy-2-fluoroethyl) oxazolidin-2-one phosphate] are 0.2 µg/mL and 0.2 µg/mL.
For `CCCn1nnc(-c2ccc(-c3ccc(N4C[C@H](C(O)C5CC5)OC4=O)cc3F)cn2)n1.O=P(O)(O)O` (stereo partly drawn) [compound 143, (R)-3-(3-fluoro-4-(6-(2-propyl-2H-tetrazol-5-yl)pyridin-3-yl)phenyl)-5-(1-hydroxy-1-cyclopropylmethyl) oxazolidin-2-one phosphate], the values for the MIC50 in experiment [1] and in experiment [2] were 0.3 µg/mL and 0.2 µg/mL, respectively.
In the same order, the values of `CCCn1nnc(-c2ccc(-c3ccc(N4C[C@@H](C(O)C5CC5)OC4=O)cc3F)cn2)n1.O=P(O)(O)O` (stereo partly drawn) [compound 144, (S)-3-(3-fluoro-4-(6-(2-propyl-2H-tetrazol-5-yl)pyridin-3-yl)phenyl)-5-(1-hydroxy-1-cyclopropylmethyl) oxazolidin-2-one phosphate] are 0.4 µg/mL and 0.4 µg/mL.
In the case of `O=C1O[C@@H](C(O)C(F)F)CN1c1ccc(-c2ccc(-c3nnn(C4CC4)n3)nc2)c(F)c1.O=P(O)(O)O` (stereo partly drawn) [compound 145, (R)-3-(3-fluoro-4-(6-(2-cyclopropyl-2H-tetrazol-5-yl)pyridin-3-yl)phenyl)-5-(1-hydroxy-2-difluoroethyl) oxazolidin-2-one phosphate], the “Minimum inhibitory concentration (MIC50, μg/ml) MRSA” value in experiment [1] was 0.6 µg/mL. In addition, the “Minimum inhibitory concentration (MIC50, μg/ml) VRE” value in experiment [2] was 0.5 µg/mL.
With `O=C1O[C@H](C(O)C2CC2)CN1c1ccc(-c2ccc(-c3nnn(C4CC4)n3)nc2)c(F)c1.O=P(O)(O)O` (stereo partly drawn) [compound 150, (S)-3-(3-fluoro-4-(6-(2-cyclopropyl-2H-tetrazol-5-yl)pyridin-3-yl)phenyl)-5-(1-hydroxy-1-cyclopropylmethyl) oxazolidin-2-one phosphate], the MIC50 in experiment [1] and in experiment [2] was 0.2 µg/mL each time.
Regarding `C=Cn1nnc(-c2ccc(-c3ccc(N4C[C@H](C(OP(=O)(O)O)C(F)F)OC4=O)cc3F)cn2)n1` (stereo partly drawn) [compound 151, (R)-3-(3-fluoro-4-(6-(2-vinyl-2H-tetrazol-5-yl)pyridin-3-yl)phenyl)-5-(1-hydroxy-2-difluoroethyl) oxazolidin-2-one phosphate], the “Minimum inhibitory concentration (MIC50, μg/ml) MRSA” value in experiment [1] was found to be 0.8 µg/mL. The “Minimum inhibitory concentration (MIC50, μg/ml) VRE” value in experiment [2] worked out at 0.6 µg/mL.
Regarding `C=Cn1nnc(-c2ccc(-c3ccc(N4C[C@@H](C(O)C(F)F)OC4=O)cc3F)cn2)n1.O=P(O)(O)O` (stereo partly drawn) [compound 152, (S)-3-(3-fluoro-4-(6-(2-vinyl-2H-tetrazol-5-yl)pyridin-3-yl)phenyl)-5-(1-hydroxy-2-difluoroethyl) oxazolidin-2-one phosphate], in experiment [1], the “Minimum inhibitory concentration (MIC50, μg/ml) MRSA” value was 0.3 µg/mL. The “Minimum inhibitory concentration (MIC50, μg/ml) VRE” value in experiment [2] stood at 0.2 µg/mL.
As to `C=Cn1nnc(-c2ccc(-c3ccc(N4C[C@H](C(O)CF)OC4=O)cc3F)cn2)n1.O=P(O)(O)O` (stereo partly drawn) [compound 153, (R)-3-(3-fluoro-4-(6-(2-vinyl-2H-tetrazol-5-yl)pyridin-3-yl)phenyl)-5-(1-hydroxy-2-fluoroethyl) oxazolidin-2-one phosphate], the MIC50 in experiment [1] worked out at 0.2 µg/mL; in experiment [2], 0.1 µg/mL.
Consider `C=Cn1nnc(-c2ccc(-c3ccc(N4C[C@@H](C(O)CF)OC4=O)cc3F)cn2)n1.O=P(O)(O)O` (stereo partly drawn) [compound 154, (S)-3-(3-fluoro-4-(6-(2-vinyl-2H-tetrazol-5-yl)pyridin-3-yl)phenyl)-5-(1-hydroxy-2-fluoroethyl) oxazolidin-2-one phosphate], for which the values for the MIC50 in experiment [1] and in experiment [2] were 0.4 µg/mL and 0.3 µg/mL, respectively.
`C=Cn1nnc(-c2ccc(-c3ccc(N4C[C@H](C(O)C5CC5)OC4=O)cc3F)cn2)n1.O=P(O)(O)O` (stereo partly drawn) [compound 155, (R)-3-(3-fluoro-4-(6-(2-vinyl-2H-tetrazol-5-yl)pyridin-3-yl)phenyl)-5-(1-hydroxy-1-cyclopropylmethyl) oxazolidin-2-one phosphate]: the MIC50 in experiment [1] was found to be 0.9 µg/mL; in experiment [2], 0.5 µg/mL.
The corresponding values for `C=Cn1nnc(-c2ccc(-c3ccc(N4C[C@@H](C(O)C5CC5)OC4=O)cc3F)cn2)n1.O=P(O)(O)O` (stereo partly drawn) [compound 156, (S)-3-(3-fluoro-4-(6-(2-vinyl-2H-tetrazol-5-yl)pyridin-3-yl)phenyl)-5-(1-hydroxy-1-cyclopropylmethyl) oxazolidin-2-one phosphate] are 0.4 µg/mL and 0.4 µg/mL.
